Results on four molecules are retold here after patent US12552733B2, “Terpenophenolic compounds and their use” (Phytotherapeutix Ltd., priority 2020, dated 2026).

Series [1] concerns MES mouse model of seizures. As to the kind of experiment: Maximal Electroshock (MES) seizure study. Type of series: in vivo. The following applies: test compounds 200 mg/kg IP, 30 min pretreatment, CBD 100 mg/kg IP, 60 min, one-way ANOVA, Fisher's LSD. As to the method:
Animals were administered vehicle, phenytoin, CBD or test compounds and gross behavioural observations were done for 30 minutes. Proparacaine hydrochloride ophthalmic solution (Butler AHS, Dublin, OH) was applied approximately 10 minutes prior to testing to numb the eyes. Thirty to sixty minutes after administration of vehicle,phenytoin, CBD or test compounds, 0.9% saline solution (sodium chloride in water) was applied to both eyes and electro-convulsions were produced by an alternating current delivered via corneal electrodes by a Rodent Shocker generator at a frequency of 60 Hz (Harvard Apparatus, Holliston, Mass.). Parameters for the ICR:CD1 mice were 0.2 s stimulus duration at an intensity of 25 mA. The criterion for seizure occurrence were presence of a tonic hind limb extension, defined as extension exceeding a 90-degree angle with the plane of the body. […] Any seizure activity (i.e. clonic seizures defined as rapid spasms or jerky movements of the limbs) prior to tonic hind limb seizure were recorded as presence of seizure (noted as 1-yes, 0-no). After seizure exhibition or 20-second timeout, mice were euthanized via cervical dislocation.
(§1) The data was expressed as mean+SEM. Statistical analysis using one-way ANOVA with post-hoc Fisher's LSD test was used to determine statistical significance compared to the vehicle-treated animals.
The results of the MES study are illustrated in FIG. 4: MES: Latency in seconds for seizures to occur in mice. Animals received treatments according to Table 2. […] Data are expressed as the average ±SEM. Data were analysed by One-way ANOVA, followed by a post-hoc Fisher's LSD test. ***P<0.001, *P<0.05, n=1 PTZ Study
(In the maximal electroshock model the usual endpoint is tonic extension of the hind limbs.)

The test system of series [2] is PTZ mouse model of seizures. As to the kind of experiment: PTZ-induced seizures study. It counts as in vivo. The conditions noted are these: 30 min pretreatment; for protection from clonic seizures (PTZ) vs vehicle-treated animals / protection from tonic hindlimb seizures (PTZ) vs vehicle-treated animals: test compounds 200 mg/kg IP, CBD 100 mg/kg IP, 60 min, PTZ 100 mg/kg i.p. The protocol: Mice were acclimated to the procedure room for at least 30 minutes. Pentylenetetrazole (PTZ; SigmaAldrich) was formulated in water to a concentration of 20 mg/ml. Injections of PTZ were made at a volume of 5 mI/kg to produce a final dose of 100 mg/kg. PTZ injections were i.p. Diazepam was formulated at a concentration of 2 mg/mL and administered at volume of 10 mL/kg to produce a final dose of 20 mg/kg. Time to initial myoclonic and tonic hindlimb extensor response was measured. A 10-min maximum latency to seizure was imposed.
as §1
(§2) Animals received treatments according to Table 3.
as §2

Series [3] is described as follows: PK study: plasma levels after i.p. administration, LC/MS/MS. Type of series: in vivo, Mouse. The following applies: 100 mg/kg i.p.; sampled at 30, 60, 120 min. As to the method:
For testing of each compound, six CD-1 mice were divided into 2 groups of 3. Animals were administered test agents via i.p. route and blood collected at 30, 60 and 120 min, administration as outlined in Table 1. Blood samples were collected in EDTA-coated microfuge tubes, inverted and placed on an ice pack prior to centrifugation and storage at −70° C. Samples were extracted using an acetonitrile/protein precipitation method and levels of test agent analysed by LC/MS/MS.
Bioanalytical detection method was developed using an LC/MS/MS (ABI 5000 or 5500). Standard curves of the test agent were prepared in an appropriate biological matrix (plasma). Levels of test article was measured in plasma as per the developed method.
Levels were determined by extrapolating the concentration from a standard curve using linear regression analysis. Method development and bioanalysis was performed by a partner company, Keystone Bioanalytical (North Wales, PA, US).

Take `C=C(C)[C@@H]1CCC(C)=C[C@H]1c1c(O)cc(CCCCC)cc1O` [Cannabidiol, reference compound]: the “effect in the MES study (latency to tonic hindlimb seizure) vs vehicle” value in series [1] is given as “did not produce a significant effect”. Further, in series [2], the “protection from clonic seizures (PTZ) vs vehicle-treated animals” value was “did not produce a significant effect” and the “protection from tonic hindlimb seizures (PTZ) vs vehicle-treated animals” value was “did not produce a significant effect”.
Consider `C=C(C)[C@@H]1CCC(C)=C[C@H]1c1c(O)cc(CCc2ccccc2)cc1O` [(−)-trans-CBD-PET, (1′R,2′R)-5′-methyl-4-phenethyl-2′-(prop-1-ene-2-yl)-1′,2′,3′,4′-tetrahydro-[1,1′-biphenyl]-2,6-diol], for which the “time at which maximal concentration in plasma was achieved after the injection” value in series [3] is listed as 30 min. In series [2] (listed as (−)-trans CBD-PET), the “protection from clonic seizures (PTZ) vs vehicle-treated animals” value was “significant protection from clonic seizures” and the “protection from tonic hindlimb seizures (PTZ) vs vehicle-treated animals” value was “significant effect, protecting from tonic hindlimb seizures”. For the same molecule, in series [2] (listed as CBD-PET), the “protection from clonic seizures (PTZ) vs vehicle-treated animals” value is “showing activity against both clonic and tonic seizures”; the “protection from tonic hindlimb seizures (PTZ) vs vehicle-treated animals” value was “showing activity against both clonic and tonic seizures”.
Consider `CN1C(=O)CN=C(c2ccccc2)c2cc(Cl)ccc21` [diazepam, reference compound], for which the “protection from the seizures (PTZ; clonic and tonic hindlimb, FIGS. 5 and 6)” value in series [2] (PO, p<0.05) is on record as 100%.
On to `C=C(C)[C@@H]1CCC(C)=C[C@H]1c1c(O)cc(CCc2ccc(O)cc2)cc1O` [(−)-trans-CBD-PET-OH, (1′R,2′R)-4-(4-hydroxyphenethyl)-5′-methyl-2′-(prop-1-ene-2-yl)-1′,2′,3′,4′-tetrahydro-[1,1′-biphenyl]-2,6-diol], for which the “time at which maximal concentration in plasma was achieved after the injection” value in series [3] is recorded as 30 min. The “effect in the MES study (latency to tonic hindlimb seizure) vs vehicle” value was “significantly different from vehicle” in series [1] (listed as (−)-trans CBD-PET-OH) and “effective” in series [1] (listed as CBD-PET-OH). Further, the “protection from tonic hindlimb seizures (PTZ) vs vehicle-treated animals” value in series [2] (listed as (−)-trans CBD-PET-OH) is reported as “significant effect, protecting from tonic hindlimb seizures”; in series [2] (listed as CBD-PET-OH), “particularly effective against tonic seizures”.
